Source: ChEMBL document CHEMBL1141998, “Synthesis and evaluation of pyrazolidine derivatives as dipeptidyl peptidase IV (DP-IV) inhibitors” (Bioorg Med Chem Lett, 2005)

target: Dipeptidyl peptidase 4 (Rattus norvegicus, UniProt P14740); assay: Inhibitory activity against dipeptidyl peptidase IV (DP-IV)
Sequence (P14740 whole entry): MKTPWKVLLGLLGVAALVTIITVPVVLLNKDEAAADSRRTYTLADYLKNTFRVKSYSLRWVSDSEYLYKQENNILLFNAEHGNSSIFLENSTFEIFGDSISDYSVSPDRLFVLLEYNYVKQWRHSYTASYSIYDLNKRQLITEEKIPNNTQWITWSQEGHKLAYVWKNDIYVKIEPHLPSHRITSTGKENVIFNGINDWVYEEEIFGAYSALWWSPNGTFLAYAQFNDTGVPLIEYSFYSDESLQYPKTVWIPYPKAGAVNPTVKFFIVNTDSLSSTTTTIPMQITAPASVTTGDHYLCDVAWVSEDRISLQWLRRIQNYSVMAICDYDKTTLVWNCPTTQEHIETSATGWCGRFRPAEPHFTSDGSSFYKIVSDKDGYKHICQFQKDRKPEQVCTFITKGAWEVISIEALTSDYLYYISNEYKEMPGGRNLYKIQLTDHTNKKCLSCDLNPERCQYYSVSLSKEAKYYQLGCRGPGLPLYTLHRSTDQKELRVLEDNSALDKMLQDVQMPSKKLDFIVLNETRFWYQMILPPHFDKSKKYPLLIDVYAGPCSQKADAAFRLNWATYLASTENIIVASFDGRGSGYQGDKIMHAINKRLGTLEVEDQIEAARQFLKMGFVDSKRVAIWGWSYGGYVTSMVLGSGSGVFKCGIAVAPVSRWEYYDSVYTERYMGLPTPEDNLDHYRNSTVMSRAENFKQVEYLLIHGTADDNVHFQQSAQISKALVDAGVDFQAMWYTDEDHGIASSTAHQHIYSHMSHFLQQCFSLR

Structure (SMILES) | IC50
CC(C)C[C@H](N)C(=O)N1CCCN1C(=O)Nc1cccc([N+](=O)[O-])c1 | 20.7 µM
CCC(C)[C@H](N)C(=O)N1CCCN1C(=O)OCc1ccccc1 (stereo not given in full) | 23.3 µM
CCC(C)[C@H](N)C(=O)N1CCCN1C(=O)Nc1ccc(Cl)c(Cl)c1 (stereo not given in full) | 5.6 µM
CCC(C)[C@H](N)C(=O)N1CCCN1C(=O)Nc1ccc(C#N)cc1 (stereo not given in full) | 9.2 µM
CCC(C)[C@H](N)C(=O)N1CCCN1C(=O)Nc1ccc(C(F)(F)F)cc1 (stereo not given in full) | 25 µM
CCC(C)[C@H](N)C(=O)N1CCCN1C(=O)Nc1ccc([N+](=O)[O-])cc1 (stereo not given in full) | 7.06 µM
CCC(C)[C@H](N)C(=O)N1CCCN1C(=O)Nc1ccc([N+](=O)[O-])c(Cl)c1 (stereo not given in full) | 4.71 µM
CCC(C)[C@H](N)C(=O)N1CCCN1C(=O)Nc1ccccc1 (stereo not given in full) | 15 µM
CCOC(=O)c1cccc(NC(=O)N2CCCN2C(=O)[C@@H](N)C(C)CC)c1 (stereo not given in full) | 8.8 µM

The remaining molecules from weak to strong by IC50, led by results:

IC50 | Structure (SMILES)
4.6 µM | O=C(CNC1CCCCC1)N1CCCN1C(=O)Nc1cccc([N+](=O)[O-])c1
4.04 µM | CCC(C)[C@H](N)C(=O)N1CCCN1C(=O)Nc1cccc(C#N)c1 (stereo not given in full)
3.9 µM | CCOC(=O)c1ccc(NC(=O)N2CCCN2C(=O)[C@@H](N)C(C)CC)cc1 (stereo not given in full)
2.27 µM | CCC(C)[C@H](N)C(=O)N1CCCN1C(=O)Nc1ccc([N+](=O)[O-])c(F)c1 (stereo not given in full)
2.1 µM | CC(C)[C@H](N)C(=O)N1CCCN1C(=O)Nc1cccc([N+](=O)[O-])c1
1.56 µM | CCC(C)[C@H](N)C(=O)N1CCCN1C(=O)Nc1cccc([N+](=O)[O-])c1 (stereo not given in full)
